Laboratory results as given in ChEMBL document CHEMBL1126258, “4-[2-[Methyl(2-phenethyl)amino]-2-oxoethyl]-8-(phenylmethoxy)-2- naphthalenecarboxylic acid: a high affinity, competitive, orally active leukotriene B4 receptor antagonist” (J Med Chem, 1992).

What was measured:
[1] = Effect on LTB4-induced neutrophil function (neutropenia) after systemic administration of 0.3 micro/kg to cynomolgus monkey.; assay type: functional, Cercopithecidae
[2] = Effect on LTB4-induced neutrophil function (neutrophilia) after systemic administration of 0.3 micro/kg to cynomolgus monkey.; assay type: functional, Cercopithecidae
[3] = molecular target: T1, Leukotriene B4 receptor 1 (Homo sapiens, UniProt Q15722); test: Antagonistic activity in human polymorphonuclear (PMN) LTB4 receptor; assay type: functional
[4] = molecular target: T1, Leukotriene B4 receptor 1; test: Antagonistic activity against human polymorphonuclear (PMN) LTB4 receptor; assay type: functional

T1 sequence (Q15722 whole entry): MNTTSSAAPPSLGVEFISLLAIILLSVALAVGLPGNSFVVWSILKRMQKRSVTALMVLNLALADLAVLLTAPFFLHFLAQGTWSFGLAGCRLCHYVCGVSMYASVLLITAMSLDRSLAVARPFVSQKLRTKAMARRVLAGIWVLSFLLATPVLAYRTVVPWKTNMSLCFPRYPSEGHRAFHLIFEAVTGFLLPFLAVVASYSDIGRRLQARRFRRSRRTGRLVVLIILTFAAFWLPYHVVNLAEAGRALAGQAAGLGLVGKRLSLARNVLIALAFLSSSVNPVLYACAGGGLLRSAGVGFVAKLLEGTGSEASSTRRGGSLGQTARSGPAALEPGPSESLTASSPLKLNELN

CN(CCc1ccccc1)C(=O)Cc1cc(C(=O)O)cc2c(OCc3ccccc3)cccc12
Inhibition [1]: 61% | Inhibition [2]: 73%

CN(CCc1ccccc1)C(=O)Cc1ccc(OCc2ccccc2)cc1
IC50 [3]: 4.7 µM

COc1ccc(/C=C/CCCCOc2ccc(C(=O)c3cccc(C(=O)O)c3)cc2CCC(=O)O)cc1
IC50 [4]: 0.012 µM
